Source: patent US20050276855A1, “Composition and method using local application of lipophilic lathyrogens sustained release formulations” (priority 2004, published 2005)
“Also recorded” adds a separate entry of the source.

Assays:
[1] = test system: esophageal stricture; settings: young adult rabbits; cited from earlier work
[2] = test system: incision skin wound in rats; experiment: Breaking strength of incision skin wound in rats after a single local injection; assay type: in vivo; settings: for Breaking strength / Change in % of control / Effect on breaking strength versus non-treated controls: Example II; for Breaking strength: 12 days after wounding, single injection underneath wound line, DPA 5 mg/0.25 ml, hexyl ester 7.5 mg/0.25 ml, Mean +/− SD; for Change in % of control: breaking strength 12 days after wounding; for Effect on breaking strength versus non-treated controls: in saline; for Effect on breaking strength versus non-treated controls / Breaking strength of skin wound, X: 12 days; for Effect on breaking strength of the healing wound: Example III, in polyethylene glycol 600; for Breaking strength of skin wound, X: Example IV, in thermosensitive polymer (TSP), Sprague-Dawley female rats
Description: Young adult rats have the hair clipped in the dorsum midline to make a rectangle having the dimensions of about 4 cm by about 9 cm. A full thickness skin incision in the midline of the dorsum of the rat is made about 8 cm long. The wound is closed with 9 to 10 interrupted sutures.
Various treatments are injected in between the sutures, underneath the closed wounds with a 8 cm long gastric needle, inserted at the distal site of the incision wound. After 12 days the animals are terminated, the skin wound is dissected with 2 cm intact skin at both sides. A specially designed multiple razor blade cutter with blades 0.5 cm apart is placed onto the skin, stretched loosely onto a cork lined board and hammered to obtain several (10 to 12) equal width skin strips, having the wound in the middle. Individual skin strips are attached to grips of a tensiometer and breaking strength is determined.
In this Example II, Applicants utilized the above-recited test method to evaluate local administration of unmodified lathyrogens and/or chemically modified lathyrogens, administered in a polymeric carrier.
In certain embodiments, the polymeric carrier comprised a mixture of polylactic and polyglycolic acid of defined molecular weights and proportion, dissolved in N-methylpyrolidone. This polymer was obtained from Atrix Company (CO) as Atrigel 30 which was supposed to be degraded in the tissues within 30 days. […] The rate of its degradation—hydrolysis, determines the rate of the release of the lathyrogen dispersed therein.
The tested lathyrogens, Compound I or derivative thereof, namely D-penicillamine-hexyl ester HCl, i.e. Compound III, wherein R1 is hexyl, was used at the dose of 5 mg/0.25 ml of polymeric carrier (for DPA), or 7.5 mg of Compound III/0.25 ml of polymeric carrier. The formulation was injected after closing the skin wound between the sutures, underneath the wound line. Saline solutions of BAPN and DPA were also administered at the same dose and volume.
Four rats were used in each group. The data recited in Table II are presented as Mean +/− Standard Deviation, based on 20 to 28 determinations in every group. The testing of the breaking strength of the skin wound strips was done 12 days after inflecting the wound. […]

[3] = test system: function of filter surgery; settings: systemic administration; cited from earlier work
[4] = test system: Schiff base crosslinks of the collagen; experiment: Swelling of skin samples in various solutions (collagen crosslink cleavage); set-up: species or system nude mice; settings: for Cleavage of crosslinks once reduced: crosslinks reduced with sodium borohydrate; for Cleavage of non reduced Schiff base crosslinks of collagen: non reduced skin discs
Text: This example documents one of the effects of DPA on the integrity of collagen structure. […] Once the crosslink is reduced (with sodium borohydrate) a stable covalent crosslinks is formed, resistant to any chemical means to break it. The Example also documents that only substances having —SH and —NH2 groups free are effective. Therefore N acetyl cystein is not effective due to the blocking its —NH2 group.
Method: Skin of 4 months old nude mice was dissected, spread on a board and with a 0.5 cm diameter punch several discs were obtained. These were kept in a moist chamber to prevent drying. The discs were weighted and immersed in the following solutions for 1 hour incubation: • 1. Phosphate buffered saline (0.1 M, pH 7.3)-control; • 2. PBS with 10 mg sodium borohydrate in 10 ml; • 3. Some discs from group 1 and 2 were further incubated for 1 hour PBS containing 100 mg cystein, or D-penicillamine or N-acetyl cystein; • 4. After 1 hour incubation in the above solutions, the skin samples were placed into 0.45% acetic acid (pH 3.5) for another hour.
After each incubation time the skins samples were blotted on a filter paper and weighted on a analytical balance with the sensitivity to 0.1 mg.
Swelling in Table 1 is given as mg weight/0.5 cm disc of skin. The data are shown as Mean +/− standard deviation (“SD”).
In this Example the swelling capacity was used as an indicator of the structural stability, namely number of crosslinks in the collagen molecules. More crosslinked collagen swells less than when the bonds are cleaved, resuming the structure of “young” collagen.

[5] = test system: sclera puncture wound; settings: locally injected; cited from earlier work
[6] = test system: esophageal stricture; settings: given systemically, without bougienage; cited from earlier work
[7] = test system: scar contracture of intracardiac prosthetic patches; settings: systemic; cited from earlier work
[8] = test system: peritendinous adhesions; settings: 1-2-g/day per os, cited from earlier work
[9] = test system: lacerated tendons; settings: systemic administration; cited from earlier work
[10] = test system: intraoccular pressure; settings: topical, cited from earlier work
[11] = 0.5 cm skin discs, 1 hour PBS, 1 hour PBS containing 100 mg substance, then 1 hour 0.45% acetic acid (pH 3.5)

## CC(C)(S)C(N)C(=O)O (stereo in doubt) [DPA, D-Penicillamine]
[1]
  Severity of esophageal stricture: less severe stricture
[2]
  Breaking strength: 695 +/− 38 g/0.5 cm
  Change in % of control: −2%
  Effect on breaking strength versus non-treated controls: no differences in the breaking strength
[3]
  Effect on the function of filter surgery: not effective
[4]; [11]
  Swelling of skin samples, Mean: 84.0 mg weight/0.5 cm disc of skin
[4]
  Cleavage of crosslinks once reduced: no effective
  Cleavage of non reduced Schiff base crosslinks of collagen: cleaves the non reduced covalent Schiff base crosslinks; also recorded: effectively cleaving
[5]
  Collagen deposition in adjacent muscle: decreased
  Wound contraction after puncturing the sclera: inhibited wound contraction

## CCCCCCNCCC#N [BAPN - lipophilic, hexyl-beta-aminopropionitrile]
[2]
  Effect on breaking strength of the healing wound: effectiveness
  Breaking strength of skin wound, X: 226

## N#CCCN [BAPN, Beta-aminopropionitrile]
[2]
  Breaking strength: 735 +/− 40 g/0.5 cm
  Change in % of control: +14%
  Effect on breaking strength versus non-treated controls: no differences in the breaking strength
[6]
  Stricture of the esophageal lumen: preventing the stricture of the lumen
[7]
  Scar contracture: inhibition of scar contracture
[8]
  Effect in patients after tenolysis: beneficial effect
[8]; study discontinued
  Side toxic effects: several side toxic effects
[9]
  Gliding function of lacerated tendons: significant improvement in the gliding function

## N#CCCN.N#CCCN.O=C(O)/C=C/C(=O)O [BAPN-F]
[5]
  Collagen deposition in adjacent muscle: decreased
  Wound contraction after puncturing the sclera: inhibited wound contraction
[10]; after filtration surgery
  Time postoperative pressure was maintained: 26.4+−11 weeks
[10]; difficult cases of glaucoma
  Overall success rate: 74%
[10]; preoperative pressure 40 mm Hg
  Postoperative intraoccular pressure: 19 mm Hg

## N[C@@H](CS)C(=O)O [CYSH, cystein]
[4]; [11]
  Swelling of skin samples, Mean: 84.0 mg weight/0.5 cm disc of skin
[4]
  Cleavage of crosslinks once reduced: no effective
  Cleavage of non reduced Schiff base crosslinks of collagen: effectively cleaving

## CCCCCCOC(=O)[C@H](N)C(C)(C)S.Cl [DPA - lipophilic, D-penicillamine-hexyl ester HCl]
[2]
  Breaking strength of skin wound, X: 321

## CC(=O)N[C@@H](CS)C(=O)O [N-acetylCYSH, N-acetyl cystein]
[4]; [11]
  Swelling of skin samples, Mean: 32.2 mg weight/0.5 cm disc of skin
[4]
  Cleavage of non reduced Schiff base crosslinks of collagen: not effective

## [BH4-].[Na+] [SBH + control, sodium borohydrate]
[4]; discs first incubated 1 hour in PBS with 10 mg sodium borohydrate in 10 ml (crosslinks reduced), then substance, then 0.45% acetic acid (pH 3.5)
  Swelling of skin samples, Mean: 27.5 mg weight/0.5 cm disc of skin

## COc1cc2c(c(OC)c1OC)-c1ccc(OC)c(=O)cc1[C@@H](NC(C)=O)CC2 [colchicine]
[1]
  Severity of esophageal stricture: severe stricture
  Wound healing: delayed wound healing

## DPA-hexanal acetone adduct
[2]
  Effect on breaking strength of the healing wound: no effect
